Measured values as given in article PMC2248166, “Quantitative peptide binding motifs for 19 human and mouse MHC class I molecules derived using positional scanning combinatorial peptide libraries” (Immunome Research, 2008).

Legend:
Format in all cases: binding
HLA B*5802 = HLA B*5802 (Homo sapiens, UniProt P01889, A329T/C349S/D201E/D98Y/E176V/E187L/E204Q/E69T/G107R/I218V/I90N/K202T/L105A/N104I/N87E/Q89R/Q94S/R106L/R155S/R180L/R86G/S101N/S121W/S35A/S48A/V127L/V306I/V36M/Y140S/Y91M)
H-2 D^d = H-2 D^d (Mus musculus, UniProt P01900)
HLA B*5301 = HLA B*5301 (Homo sapiens, UniProt P01889, A329T/A93T/A95T/C349S/D201E/D98Y/E176V/E187L/E204Q/E69T/G107R/I218V/K202T/L105A/L119I/N104I/Q94N/R106L/R155S/R180L/S101N/S121R/S35A/S48A/T118I/V127L/V306I/V36M/Y140S/Y91F)
H-2 D^b = H-2 D^b (Mus musculus, UniProt P01899)
HLA B*3501 = HLA B*3501 (Homo sapiens, UniProt P01889, A329T/A93T/A95T/C349S/D201E/D98Y/E176V/E187L/E204Q/E69T/I218V/K202T/L119I/Q94N/R155S/R180L/S121R/S35A/S48A/T118I/V127L/V306I/V36M/Y140S/Y91F)
H-2 K^k = H-2 K^k (Mus musculus, UniProt P04223)
HLA B*1503 = HLA B*1503 (Homo sapiens, UniProt P01889, A329T/A93T/A95T/C349S/D201E/D98Y/E187L/E204Q/K202T/N87E/Q94N/R155S/R180L/S121R/S35A/V306I/V36M/Y140S/Y91S); test: biochemical
HLA B*5801 = HLA B*5801 (Homo sapiens, UniProt P01889, A329T/C349S/D201E/D98Y/E176V/E187L/E204Q/E69T/G107R/I218V/I90N/K202T/L105A/L119I/N104I/N87E/Q89R/Q94S/R106L/R155S/R180L/R86G/S101N/S121R/S35A/S48A/T118I/V127L/V306I/V36M/Y140S/Y91M)
HLA B*0801 = HLA B*0801 (Homo sapiens, UniProt P01889, A93T/A95T/D138N/E176V/E187T/K202T/Q94N/R180D/S35A/V36M/Y33D/Y91F); test: biochemical
HLA B*5101 = HLA B*5101 (Homo sapiens, UniProt P01889, A329T/A93T/A95T/C349S/D138N/D201E/D98Y/E187L/E204Q/E69T/G107R/I218V/K202T/L105A/L119W/N104I/Q94N/R106L/R155S/R180L/S101N/S121T/S35A/S48A/V306I/V36M/Y195H/Y91F)
HLA A*6802 = HLA A*6802 (Homo sapiens, UniProt P04439, A269V/D140Y/D185E/E176V/E277Q/E87N/F33Y/G231S/I121R/I166T/I218V/L180W/L300P/L318F/N151K/P208A/P217A/Q86R/R138H/R169H/S129P/T345S/V36M)
HLA A*3001 = HLA A*3001 (Homo sapiens, UniProt P04439, D140H/D185E/E176W/F33S/G80R/H175R/K168Q/R138E/R41S); test: biochemical
HLA B*1501 = HLA B*1501 (Homo sapiens, UniProt P01889, A329T/A93T/A95T/C349S/D201E/D98Y/E187L/E204Q/E69M/E70A/K202T/N87E/Q94N/R155S/R180W/S121R/S35A/S48A/V306I/V36M/Y140S/Y91S); test: biochemical
H-2 K^d = H-2 K^d (Mus musculus, UniProt P01902)
HLA B*5401 = HLA B*5401 (Homo sapiens, UniProt P01889, A329T/C349S/D138N/D201E/E176V/E187T/E204Q/E69G/I76V/K202T/L119W/R155S/R180L/S121T/S35A/S48A/V127L/V306I/V36M/Y140L)
HLA A*3201 = HLA A*3201 (Homo sapiens, UniProt P04439, A270S/D101S/D185E/E176V/E277Q/F133L/G103R/G107R/G231S/H175R/I121M/I218V/I322F/K168Q/L105A/L300P/L318F/M331R/P208A/P217A/Q94H/R106L/R138Q/S129P/T104I/T323A/T345S/V100E/V321M/V358M); test: biochemical

Sequence of H-2 D^b (P01887 21-119): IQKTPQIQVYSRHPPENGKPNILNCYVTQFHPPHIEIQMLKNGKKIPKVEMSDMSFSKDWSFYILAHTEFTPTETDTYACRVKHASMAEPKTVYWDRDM
Sequence of H-2 D^b (P01899 25-362): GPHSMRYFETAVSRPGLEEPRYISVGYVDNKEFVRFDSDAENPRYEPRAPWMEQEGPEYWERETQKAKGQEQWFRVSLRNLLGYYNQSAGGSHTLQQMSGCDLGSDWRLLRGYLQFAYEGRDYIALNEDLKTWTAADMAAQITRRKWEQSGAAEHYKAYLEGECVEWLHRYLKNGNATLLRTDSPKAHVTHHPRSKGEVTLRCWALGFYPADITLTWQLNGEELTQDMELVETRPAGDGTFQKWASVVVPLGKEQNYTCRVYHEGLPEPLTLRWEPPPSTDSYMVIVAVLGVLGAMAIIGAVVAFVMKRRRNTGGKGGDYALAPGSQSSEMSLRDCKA
Sequence of H-2 K^d (P01887 21-119): as the sequence (P01887 21-119) above
Sequence of H-2 K^d (P01902 22-368): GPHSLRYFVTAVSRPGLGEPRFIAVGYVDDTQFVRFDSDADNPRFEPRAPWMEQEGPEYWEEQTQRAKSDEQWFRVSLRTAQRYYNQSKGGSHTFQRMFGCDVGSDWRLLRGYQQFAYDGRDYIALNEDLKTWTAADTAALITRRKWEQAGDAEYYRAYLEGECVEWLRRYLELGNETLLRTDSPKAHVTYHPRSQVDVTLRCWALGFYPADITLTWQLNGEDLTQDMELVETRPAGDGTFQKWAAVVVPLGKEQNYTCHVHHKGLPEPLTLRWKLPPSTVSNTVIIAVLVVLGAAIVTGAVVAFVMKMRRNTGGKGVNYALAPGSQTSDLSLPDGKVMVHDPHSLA
Sequence of H-2 K^k (P01887 21-119): as the sequence (P01887 21-119) above
Sequence of H-2 K^k (P04223 22-369): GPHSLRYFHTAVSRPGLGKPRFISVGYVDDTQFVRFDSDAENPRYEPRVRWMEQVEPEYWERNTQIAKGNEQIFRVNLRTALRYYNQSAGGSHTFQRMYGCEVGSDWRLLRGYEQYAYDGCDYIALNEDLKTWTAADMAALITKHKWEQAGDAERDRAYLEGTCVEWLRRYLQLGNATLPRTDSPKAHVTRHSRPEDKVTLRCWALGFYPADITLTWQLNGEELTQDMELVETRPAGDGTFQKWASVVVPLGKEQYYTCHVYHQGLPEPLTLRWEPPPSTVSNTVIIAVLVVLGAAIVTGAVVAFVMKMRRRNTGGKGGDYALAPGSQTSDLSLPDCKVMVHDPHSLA
Sequence of H-2 D^d (P01900 whole entry, looked up): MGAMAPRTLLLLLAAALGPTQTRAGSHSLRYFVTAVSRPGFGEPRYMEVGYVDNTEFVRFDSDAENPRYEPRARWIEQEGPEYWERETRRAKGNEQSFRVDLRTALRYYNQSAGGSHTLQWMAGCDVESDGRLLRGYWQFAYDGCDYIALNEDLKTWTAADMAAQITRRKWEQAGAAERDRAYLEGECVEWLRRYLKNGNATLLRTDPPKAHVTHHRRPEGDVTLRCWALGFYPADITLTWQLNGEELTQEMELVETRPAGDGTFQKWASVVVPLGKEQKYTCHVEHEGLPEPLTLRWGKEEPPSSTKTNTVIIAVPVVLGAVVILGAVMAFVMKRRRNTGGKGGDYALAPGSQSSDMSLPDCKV

## XXXXTXXXX [3064.0097]
HLA B*5802
  Normalized average relative binding affinity(ARB): 0.16
H-2 D^d
  Normalized average relative binding affinity(ARB): 0.18
HLA B*5301
  Normalized average relative binding affinity(ARB): 0.11
H-2 D^b
  Normalized average relative binding affinity(ARB): 0.018
HLA B*3501
  Normalized average relative binding affinity(ARB): 0.21
H-2 K^k
  Normalized average relative binding affinity(ARB): 0.16
HLA B*1503
  Normalized average relative binding affinity(ARB): 0.43
HLA B*5801
  Normalized average relative binding affinity(ARB): 0.33
HLA B*0801
  Normalized average relative binding affinity(ARB): 0.011
HLA B*5101
  Normalized average relative binding affinity(ARB): 0.51
HLA A*6802
  Normalized average relative binding affinity(ARB): 0.044
HLA A*3001
  Normalized average relative binding affinity(ARB): 0.18
HLA B*1501
  Normalized average relative binding affinity(ARB): 0.62
H-2 K^d
  Normalized average relative binding affinity(ARB): 0.42
HLA B*5401
  Normalized average relative binding affinity(ARB): 0.085
HLA A*3201
  Normalized average relative binding affinity(ARB): 0.062

## XXXXVXXXX [3064.0098]
HLA B*5802
  Normalized average relative binding affinity(ARB): 0.87
H-2 D^d
  Normalized average relative binding affinity(ARB): 0.25
HLA B*5301
  Normalized average relative binding affinity(ARB): 0.18
H-2 D^b
  Normalized average relative binding affinity(ARB): 0.021
HLA B*3501
  Normalized average relative binding affinity(ARB): 0.22
H-2 K^k
  Normalized average relative binding affinity(ARB): 0.18
HLA B*1503
  Normalized average relative binding affinity(ARB): 0.24
HLA B*5801
  Normalized average relative binding affinity(ARB): 1.0
HLA B*0801
  Normalized average relative binding affinity(ARB): 0.019
HLA B*5101
  Normalized average relative binding affinity(ARB): 0.36
HLA A*6802
  Normalized average relative binding affinity(ARB): 0.51
HLA A*3001
  Normalized average relative binding affinity(ARB): 0.35
HLA B*1501
  Normalized average relative binding affinity(ARB): 0.56
H-2 K^d
  Normalized average relative binding affinity(ARB): 0.24
HLA B*5401
  Normalized average relative binding affinity(ARB): 0.042
HLA A*3201
  Normalized average relative binding affinity(ARB): 0.47

## XXXXWXXXX [3064.0099]
HLA B*5802
  Normalized average relative binding affinity(ARB): 1.0
H-2 D^d
  Normalized average relative binding affinity(ARB): 0.098
HLA B*5301
  Normalized average relative binding affinity(ARB): 0.074
H-2 D^b
  Normalized average relative binding affinity(ARB): 0.013
HLA B*3501
  Normalized average relative binding affinity(ARB): 0.29
H-2 K^k
  Normalized average relative binding affinity(ARB): 1.0
HLA B*1503
  Normalized average relative binding affinity(ARB): 0.44
HLA B*5801
  Normalized average relative binding affinity(ARB): 0.30
HLA B*0801
  Normalized average relative binding affinity(ARB): 0.023
HLA B*5101
  Normalized average relative binding affinity(ARB): 0.19
HLA A*6802
  Normalized average relative binding affinity(ARB): 0.26
HLA A*3001
  Normalized average relative binding affinity(ARB): 0.16
HLA B*1501
  Normalized average relative binding affinity(ARB): 0.49
H-2 K^d
  Normalized average relative binding affinity(ARB): 0.21
HLA B*5401
  Normalized average relative binding affinity(ARB): 0.14
HLA A*3201
  Normalized average relative binding affinity(ARB): 0.65

## XXXXXAXXX [3064.0101]
HLA B*5802
  Normalized average relative binding affinity(ARB): 0.91
H-2 D^d
  Normalized average relative binding affinity(ARB): 0.51
HLA B*5301
  Normalized average relative binding affinity(ARB): 0.65
H-2 D^b
  Normalized average relative binding affinity(ARB): 0.62
HLA B*3501
  Normalized average relative binding affinity(ARB): 0.21
H-2 K^k
  Normalized average relative binding affinity(ARB): 0.83
HLA B*1503
  Normalized average relative binding affinity(ARB): 0.45
HLA B*5801
  Normalized average relative binding affinity(ARB): 0.28
HLA B*0801
  Normalized average relative binding affinity(ARB): 0.011
HLA B*5101
  Normalized average relative binding affinity(ARB): 0.43
HLA A*6802
  Normalized average relative binding affinity(ARB): 0.82
HLA A*3001
  Normalized average relative binding affinity(ARB): 0.34
HLA B*1501
  Normalized average relative binding affinity(ARB): 0.30
H-2 K^d
  Normalized average relative binding affinity(ARB): 0.26
HLA B*5401
  Normalized average relative binding affinity(ARB): 0.20
HLA A*3201
  Normalized average relative binding affinity(ARB): 0.83

## XXXXXCXXX [3064.0102]
HLA B*5802
  Normalized average relative binding affinity(ARB): 0.38
H-2 D^d
  Normalized average relative binding affinity(ARB): 0.43
HLA B*5301
  Normalized average relative binding affinity(ARB): 0.13
H-2 D^b
  Normalized average relative binding affinity(ARB): 0.66
HLA B*3501
  Normalized average relative binding affinity(ARB): 0.15
H-2 K^k
  Normalized average relative binding affinity(ARB): 0.40
HLA B*1503
  Normalized average relative binding affinity(ARB): 0.096
HLA B*5801
  Normalized average relative binding affinity(ARB): 0.17
HLA B*0801
  Normalized average relative binding affinity(ARB): 0.039
HLA B*5101
  Normalized average relative binding affinity(ARB): 0.26
HLA A*6802
  Normalized average relative binding affinity(ARB): 0.44
HLA A*3001
  Normalized average relative binding affinity(ARB): 0.13
HLA B*1501
  Normalized average relative binding affinity(ARB): 0.40
H-2 K^d
  Normalized average relative binding affinity(ARB): 0.26
HLA B*5401
  Normalized average relative binding affinity(ARB): 0.10
HLA A*3201
  Normalized average relative binding affinity(ARB): 0.19

## XXXXXDXXX [3064.0103]
HLA B*5802
  Normalized average relative binding affinity(ARB): 0.15
H-2 D^d
  Normalized average relative binding affinity(ARB): 0.29
HLA B*5301
  Normalized average relative binding affinity(ARB): 0.15
H-2 D^b
  Normalized average relative binding affinity(ARB): 0.29
HLA B*3501
  Normalized average relative binding affinity(ARB): 0.13
H-2 K^k
  Normalized average relative binding affinity(ARB): 0.37
HLA B*1503
  Normalized average relative binding affinity(ARB): 0.19
HLA B*5801
  Normalized average relative binding affinity(ARB): 0.36
HLA B*0801
  Normalized average relative binding affinity(ARB): 0.0089
HLA B*5101
  Normalized average relative binding affinity(ARB): 0.064
HLA A*6802
  Normalized average relative binding affinity(ARB): 0.69
HLA A*3001
  Normalized average relative binding affinity(ARB): 0.016
HLA B*1501
  Normalized average relative binding affinity(ARB): 0.18
H-2 K^d
  Normalized average relative binding affinity(ARB): 0.066
HLA B*5401
  Normalized average relative binding affinity(ARB): 0.045
HLA A*3201
  Normalized average relative binding affinity(ARB): 0.16

## XXXXXEXXX [3064.0104]
HLA B*5802
  Normalized average relative binding affinity(ARB): 0.14
H-2 D^d
  Normalized average relative binding affinity(ARB): 0.31
HLA B*5301
  Normalized average relative binding affinity(ARB): 0.21
H-2 D^b
  Normalized average relative binding affinity(ARB): 0.43
HLA B*3501
  Normalized average relative binding affinity(ARB): 0.21
H-2 K^k
  Normalized average relative binding affinity(ARB): 0.18
HLA B*1503
  Normalized average relative binding affinity(ARB): 0.40
HLA B*5801
  Normalized average relative binding affinity(ARB): 0.80
HLA B*0801
  Normalized average relative binding affinity(ARB): 0.023
HLA B*5101
  Normalized average relative binding affinity(ARB): 0.12
HLA A*6802
  Normalized average relative binding affinity(ARB): 0.75
HLA A*3001
  Normalized average relative binding affinity(ARB): 0.059
HLA B*1501
  Normalized average relative binding affinity(ARB): 0.30
H-2 K^d
  Normalized average relative binding affinity(ARB): 0.083
HLA B*5401
  Normalized average relative binding affinity(ARB): 0.065
HLA A*3201
  Normalized average relative binding affinity(ARB): 0.35

## XXXXXFXXX [3064.0105]
HLA B*5802
  Normalized average relative binding affinity(ARB): 0.36
H-2 D^d
  Normalized average relative binding affinity(ARB): 0.79
HLA B*5301
  Normalized average relative binding affinity(ARB): 0.86
H-2 D^b
  Normalized average relative binding affinity(ARB): 0.70
HLA B*3501
  Normalized average relative binding affinity(ARB): 1.0
H-2 K^k
  Normalized average relative binding affinity(ARB): 1.0
HLA B*1503
  Normalized average relative binding affinity(ARB): 1.0
HLA B*5801
  Normalized average relative binding affinity(ARB): 0.51
HLA B*0801
  Normalized average relative binding affinity(ARB): 1.0
HLA B*5101
  Normalized average relative binding affinity(ARB): 1.0
HLA A*6802
  Normalized average relative binding affinity(ARB): 1.0
HLA A*3001
  Normalized average relative binding affinity(ARB): 1.0
HLA B*1501
  Normalized average relative binding affinity(ARB): 1.0
H-2 K^d
  Normalized average relative binding affinity(ARB): 0.39
HLA B*5401
  Normalized average relative binding affinity(ARB): 0.30
HLA A*3201
  Normalized average relative binding affinity(ARB): 0.90
